This note sets out measurements from patent publication US8318717B2, “Compounds modifying apoptosis” (2cureX, priority 2005, dated 2012).

Data set [1] deals with human colorectal adenocarcinoma cell line HT-29. The data set is described as follows: Xenograft study, HT-29 tumours in nude mice. The data set is classed as in vivo, nude BALB/c mice. An excerpt: Female athymic nude BALB/c mice (BALB/cABom-Foxn1^nu, CA.Cg-Foxn1^nu) are obtained from Taconic Ltd, Ry, Denmark and maintained in the animal facility. Animals are approximately 6 weeks old with an initial body weight of 17-18 g when used for the experiments. The mice are housed in microisolators (filter top cages, Tecniplast, Buguggiata, Italy) under pathogen-free conditions with a 12-h light/12-h dark schedule and fed autoclaved standard chow (Altromin #1324, Lage, Germany) and water ad libitum throughout the experiment. All animals are handled under sterile conditions and maintained in a separate facility. The Danish Experimental Animal Inspectorate has approved the experimental protocol and all animal experiments are performed according to the ethical standards required by the UKCCCCR Guidelines {UKCCCR 1998}. During the study blood samples is taken one time per week. The number of animals per group (control-treatment) should be 8 animals at a minimum. Thirty-fifty percent more animals are inoculated with cells than needed in the study in order to be able to exclude animals in which there is no tumour take—i.e. the tumour fails to establish and grow progressively.
The human colorectal adenocarcinoma cell line HT-29 (HTB-38) has been obtained from the American Type Culture Collection (ATCC) Manassas, Va., USA. Tumour cells growing exponentially are harvested by brief incubation with 0.05% Trypsin-EDTA solution suspended in new medium for injection.
Tumour xenografts are initiated by subcutaneous (s.c.) injection of 10^7 cells into the left flank of nude mice. […]
Tumour volume, food consumption, body weight is measured twice a week. […] Evaluation of tumour growth: The tumours are measured every 3-4 day with a calliper. Baseline tumour weight are calculated by using the following formula mg=(L×W^2)/2 where L=length, W=width and these are perpendicular to each other {Teicher BA 1997}. […]
All data are expressed as the mean±SEM, and statistical analyses of the tumour data are performed using t-test. […]

Another data set addresses T1, XIAP (Homo sapiens, UniProt P98170).
T1 construct: pull down one member of the IAP family, XIAP from cell lysates prepared from various tissues; endogenous in cells; host or cells: Hek293 cells, Hela cells, colon tissue (lysates)
The data set is described as follows: Pull down of XIAP from cell lysates by compound-carrying beads (Western). The data set is classed as binding. Here is the method:
Beads displaying compound 2CX2.201 or 2CX4.401 respectively are compared with regard to their ability to bind and pull down one member of the IAP family, XIAP from cell lysates prepared from various tissues.
• Positive control resin beads carrying a tetra-peptide (H-Ala-Val-Pro-Phe-Bead) mimicking the N-terminal part of Smac that binds to BIR3 domain of XIAP was prepared. The method of preparation was analogous to the general procedure described in example 2 with the change that only the four specific peptides were included in each of the four couplings and that the split and mix step was omitted. • Resin beads carrying 2CX2.201 was prepared as described above. • Resin beads carrying 2CX4.401 was prepared as described above. Lysate Preparation: • Hek293 and Hela: Cells are scraped off the plate in Phosphate Buffered Saline (PBS) at 4° C. • Colon tissue: Is blended into a homogeneous suspension in PBS at 4° C. • All cell suspensions are centrifuged for 10 min at 3000 rpm and supernatant is discarded. • Pellet is re-suspended in lysis buffer (50 mM Tris-HCL, 1 mM EGTA, 1 mM EDTA, 1% Triton-X W/W, 1 mM Sodium orthovanadate, 50 mM Sodium fluoride, 5 mM Sodium pyrophosphate, 1 mM MDTT, “Complete” (protease inh.) One tablet for 50 ml) • Incubate for 20 min at 4° C. • Centrifuge at 32.000 G for 30 min, 4° C. • Move supernatant to new vial (discard pellet) • Measure protein concentration Pull Down: • Bead/lysate ratio: 20 ul beads/10 mg lysate (equivalent to one pull down) • Beads are washed in 1 ml lysis buffer×2 • Lysate+beads are mixed and incubated for 1 hrs at 4° C., shaking • Beads are washed ×4 in 1 ml Lysis buffer w. […]

For data set [2], the system named is primary colon cancer cells from patients and colon cancer lines (i.e. HT29). Briefly: Cell penetration, IAP inhibition and apoptosis in colon cancer cells. The data set is classed as cell-based, human.
Data set [3] is described as follows: Stability in serum from mice. The data set is classed as in vitro ADME.

T1 sequence (P98170 whole entry): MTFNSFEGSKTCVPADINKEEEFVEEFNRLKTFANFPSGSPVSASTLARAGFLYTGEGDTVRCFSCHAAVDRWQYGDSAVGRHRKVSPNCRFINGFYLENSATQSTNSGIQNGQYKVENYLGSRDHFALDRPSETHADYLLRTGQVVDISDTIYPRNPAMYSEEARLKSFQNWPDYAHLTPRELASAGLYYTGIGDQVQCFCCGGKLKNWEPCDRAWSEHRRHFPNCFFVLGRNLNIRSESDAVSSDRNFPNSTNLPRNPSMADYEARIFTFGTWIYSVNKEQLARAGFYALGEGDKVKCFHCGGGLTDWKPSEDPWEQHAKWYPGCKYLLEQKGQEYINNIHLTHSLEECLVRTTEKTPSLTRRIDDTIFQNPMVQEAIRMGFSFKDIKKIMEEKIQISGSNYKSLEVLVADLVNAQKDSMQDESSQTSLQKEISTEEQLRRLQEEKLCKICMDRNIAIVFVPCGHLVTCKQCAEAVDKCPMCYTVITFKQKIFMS

Take `CN[C@@H](C)C(=O)N[C@H](C(=O)N1C[C@@H](NCC2CCCCC2)C[C@H]1C(=O)N[C@@H](Cc1ccccc1)C(N)=O)C(C)C` [2CX4.401]: the “effect on Paclitaxel efficacy (tumour weight)” value in data set [1] (combination with paclitaxel, 29 days after inoculation, FIG. 4) is given as “significantly potentiated the effect of Paclitaxel”. For the same molecule, the “tumour weight relative to that observed with Paclitaxel alone” value in data set [1] (combined treatment: 2CX4.401 0.0625 mg/h osmotic pump + paclitaxel 25 mg/kg s.c. once a week, 29 days after inoculation) is “approx. 15%”. In data set [1] (mono-therapy, osmotic pump 0.0625 mg/h, 29 days), the “tumour growth in mono-therapy” value is listed as “does not affect tumour growth”. Moreover, the “affinity for XIAP, comparison of the two compounds” value on XIAP (conclusion from pull down experiments) is given as “significant higher affinity than that of 2CX2.201”. In addition, at XIAP (lysates of Hek293, Hela, colon tissue, compound on beads), the “pull down of XIAP (FIG. 5a)” value was “approximately the same degree as the endogenous AVPF peptide”. Also, the “pull down of XIAP (FIG. 5b)” value on XIAP (prolonged exposure time to increase sensitivity) was “weaker effect”. Further, in data set [2], the apoptosis entry is reported as “promote apoptosis” and the “inhibition of IAPs” value is “inhibits IAPs”. Besides, in data set [3], the stability in serum result is given as “high degree of stability”.
